Results from US11241441B2, “Formulations of lixivaptan for the treatment of polycystic disease” (PALLADIO BIOSCIENCES, INC., priority 2017, dated 2022).

Columns and labels:
[1] = 90/30 mg split daily dosing; cited from earlier work
[2] = Measured Log P; assay type: physicochemical
[3] = Shoaf, 2013; cited from earlier work

Cc1ccccc1C(=O)Nc1ccc(C(=O)N2CCCC(O)c3cc(Cl)ccc32)c(C)c1 (stereo not drawn) [tolvaptan]
individuals with ALT elevations (reported by Woodhead) [1]: approximately 8%
logP [2]: > 3
exposure in subjects with impaired renal function compared to healthy individuals [3]: increased exposure
